Measured values published in a compilation of properties of binary mixtures (doi:10.1016/j.jct.2016.06.015).

Assay: xn = mol fraction of the nth substance listed
Settings: 100 kPa

CC[n+]1ccn(C)c1.F[B-](F)(F)F + CC#N
viscosity [mPa·s]
Settings	x2 = 0	x2 = 0.0797	x2 = 0.1787	x2 = 0.2803	x2 = 0.3682	x2 = 0.4903	x2 = 0.5753	x2 = 0.7116	x2 = 0.8301
293.15 K	50.5	37.4	–	18.1	12.3	7.49	4.83	2.48	1.21
298.15 K	41.5	31.1	21.4	15.6	10.7	6.64	4.38	2.29	–
303.15 K	34.5	26.2	18.3	13.5	9.45	5.94	4	2.11	1.08
313.15 K	24.8	19.4	14	–	–	4.85	3.36	1.82	0.961
323.15 K	–	14.9	11	–	–	4.05	2.87	–	0.866
333.15 K	14.5	11.8	8.88	–	5.07	3.44	2.48	–	0.785
343.15 K	11.7	9.6	7.29	5.68	–	2.97	2.17	–	–

CS(C)=O + CC[n+]1ccn(C)c1.F[B-](F)(F)F
x1 = 1
Settings	viscosity [mPa·s]
293.15 K	2.21
298.15 K	2.01
303.15 K	1.84
313.15 K	1.56
323.15 K	1.34
333.15 K	1.17
343.15 K	1.03
353.15 K	0.917

CC[n+]1ccn(C)c1.F[B-](F)(F)F + CS(C)=O
viscosity [mPa·s]
Settings	x2 = 0	x2 = 0.0872	x2 = 0.2021	x2 = 0.2931	x2 = 0.4098	x2 = 0.4781	x2 = 0.5718	x2 = 0.6689	x2 = 0.7866	x2 = 0.8959
293.15 K	50.5	43.1	35.1	29.5	22.8	–	14.5	10.3	6.32	3.84
298.15 K	41.5	35.5	29.1	24.6	–	16.1	12.3	8.84	5.55	3.43
303.15 K	34.5	29.7	24.5	20.8	16.3	13.8	10.6	7.69	–	3.09
313.15 K	–	21.6	18	–	12.1	10.4	8.08	5.98	3.92	2.52
323.15 K	18.6	16.3	13.7	11.8	9.43	8.09	6.37	4.78	3.21	2.13
333.15 K	14.5	12.8	10.8	9.36	7.53	6.5	5.15	3.91	2.68	1.83
343.15 K	–	10.3	8.73	–	6.16	5.33	4.24	3.24	2.28	–
353.15 K	9.58	8.4	7.18	6.29	5.15	–	3.59	2.77	1.97	1.42
